Reference: US9822099B2, “Triazole derivatives” (priority 2013, dated 2017)
Marks after values point to notes of the source that are not given here.

Settings: method [a]: LC-MS at pH 2.7, 0.1% formic acid in water / acetonitrile gradient

Row | SMILES | LogP
1 | O=C(Cc1ccc2ccccc2n1)C1(Cl)CC1 [Example V-1] | 3.39^[a]
2 | O=C(Cc1ncccc1Cl)C1(Cl)CC1 [Example V-2] | 2.40^[a]
3 | O=C(Cc1ccncc1Cl)C1(Cl)CC1 [Example V-4] | 2.13^[a]
4 | O=C(Cc1cc(Cl)nc(Cl)c1)C1(Cl)CC1 [Example V-5] | 3.25^[a]
5 | O=C(Cc1ccc(Cl)nc1)C1(Cl)CC1 [Example V-6] | 2.34^[a]
6 | O=C(Cc1ccncc1Cl)C1(F)CC1 [Example V-7] | 1.76^[a]
7 | CC(C)(F)C(=O)Cc1ccncc1Cl [Example V-8] | 1.97^[a]
8 | CC1(C(=O)Cc2cccnc2Cl)CC1 [Example V-9] | 1.96^[a]
9 | O=C(Cc1cccnc1Cl)C1(c2ccccc2)CC1 [Example V-10] | 3.00^[a]
10 | CC1(C(=O)Cc2ccncc2Cl)CC1 [Example V-11] | 1.85^[a]
11 | CC1(C(=O)Cc2ccncc2Cl)CCCCC1 [Example V-12] | 3.23^[a]
12 | O=C(Cc1cnc2ccccc2c1)C1(Cl)CC1 [Example V-13] | 1.60^[a]
13 | O=C(Cc1cccnc1F)C1(Cl)CC1 [Example V-16] | 2.07^[a]
14 | O=C(Cc1ccc(Cl)nc1Cl)C1(Cl)CC1 [Example V-17] | 3.19^[a]
15 | Cc1cccc2cc(CC(=O)C3(Cl)CC3)c(Cl)nc12 [Example V-18] | 4.14^[a]
16 | O=C(Cc1cccnc1)C1(Cl)CC1 [Example V-19] | 0.23^[a]
17 | O=C(Cc1c(Cl)ccnc1Cl)C1(Cl)CC1 [Example V-20] | 2.96^[a]
18 | O=C(Cc1cc(Cl)cnc1Cl)C1(Cl)CC1 [Example V-21] | 3.12^[a]
19 | ClC1(C2(Cc3ccc4ccccc4n3)CO2)CC1 (stereo not shown) [XII-1] | 1.74^[a]
20 | Clc1ccc(CC2(C3(Cl)CC3)CO2)cn1 (stereo not shown) [XII-2] | 2.84
21 | Clc1cccnc1CC1(C2(Cl)CC2)CO1 (stereo not shown) [XII-4] | 2.69^[a]
22 | Clc1ncccc1CC1(C2(Cl)CC2)CO1 (stereo not shown) [XII-5] | 2.69^[a]
23 | Fc1cnccc1CC1(C2(Cl)CC2)CO1 (stereo not shown) [XII-6] | 2.13^[a]
24 | Fc1cnccc1CC1(C2(F)CC2)CO1 (stereo not shown) [XII-7] | 1.63^[a]
25 | CC(CF)(CF)C1(Cc2ccncc2F)CO1 (stereo not shown) [XII-8] | 1.79^[a]
26 | FC1(C2(Cc3ccnc(Cl)c3)CO2)CC1 (stereo not shown) [XII-9] | 2.27^[a]
27 | CC(CF)(CF)C1(Cc2ccnc(Cl)c2)CO1 (stereo not shown) [XII-10] | 2.38^[a]
28 | Clc1cc(CC2(C3(Cl)CC3)CO2)ccn1 (stereo not shown) [XII-11] | 2.80^[a]
29 | CC(CF)(CF)C1(Cc2cc(Cl)ncc2F)CO1 (stereo not shown) [XII-12] | 2.69^[a]
30 | Fc1cnc(Cl)cc1CC1(C2(F)CC2)CO1 (stereo not shown) [XII-13] | 2.57^[a]

Same assay, conditions: method [b]: LC-MS at pH 7.8, 0.001 molar ammonium hydrogen carbonate in water / acetonitrile gradient

Row | SMILES | LogP
31 | O=C(Cc1ccc(Cl)nc1)C1(Cl)CC1 [Example V-6] | 2.30^[b];
32 | Clc1ccc(CC2(C3(Cl)CC3)CO2)cn1 (stereo not shown) [XII-2] | 2.83

Same assay, conditions: pH 2.7

Row | SMILES | LogP
33 | OC(Cc1c(Cl)cncc1Cl)(Cn1cncn1)c1ccc(Cl)nc1 (racemic) [Example I-63] | 1.89^[a]
34 | OC(Cc1ccncc1Cl)(Cn1cncn1)C1(c2ccccc2)CC1 (racemic) [Example I-78] | 2.23^[a]
35 | OC(Cc1ccccc1F)(Cc1ccncc1F)Cn1cncn1 (stereo not shown) [Example I-20] | 1.63^[a]
36 | C[Si](C)(C)OC(Cc1cnccn1)(Cn1cncn1)C1(Cl)CC1 (stereo not shown) [Example I-28] | 2.75^[a]
37 | OC(Cc1cccc(Cl)c1)(Cc1ccnc(Cl)c1)Cn1cncn1 (stereo not shown) [Example I-37] | 2.42^[a]
38 | OC(Cc1cc(Cl)ccn1)(Cn1cncn1)C1(Cl)CC1 (stereo not shown) [Example I-47] | 2.02^[a]
39 | Cc1ccnc(CC(O)(Cn2cncn2)C2(Cl)CC2)c1 (stereo not shown) [Example I-52] | 0.52^[a]
40 | OC(Cc1cc(Cl)nc2ccccc12)(Cn1cncn1)C1(Cl)CC1 (stereo not shown) [Example I-92] | 2.69^[a]
41 | CC1(C(O)(Cc2ccnnc2Cl)Cn2cncn2)CC1 (stereo not shown) [Example I-93] | 1.28^[a]
42 | OC(Cc1nc(Cl)ccc1Cl)(Cn1cncn1)C1(Cl)CC1 (stereo not shown) [Example I-96] | 2.73^[a]
43 | OC(Cc1ncc(Cl)cc1Cl)(Cn1cncn1)C1(Cl)CC1 (stereo not shown) [Example I-97] | 2.88^[a]
